# Reference: patent US12606540B2, “Triazolone compound” (MEDSHINE DISCOVERY INC., priority 2020, dated 2026)
# Read-outs that look alike come from different tables or passages of the source.
# Tests used:
# DHODH enzyme = DHODH enzyme (Homo sapiens, UniProt Q02127); assay: DHODH enzyme inhibitory activity in vitro (resazurin fluorescence); assay type: biochemical; details: 5 nM DHODH, 15 μM L-DHO, 80 μM Resazurin
# Description: The DHODH inhibitory activity of the compounds was detected by the following experimental method, and the experimental results are as shown in Table 1.
# DHODH uses flavin mononucleotide FMN to catalyze the oxidation of dihydrooratic acid DHO to produce oratic acid, while the re-oxidation of FMN requires the participation of coenzyme CoQ. In the experiment of detecting the DHODH enzyme activity, CoQ was replaced by Resazurin dye as the final electron acceptor in the enzyme activity reaction. Resazurin solution is blue, and the resorufin generated after reduction has red fluorescence, and the fluorescence signal can be detected under the 535 nm of excitation wavelength and the 590 nm of emission wavelength. The components of the reaction buffer used in the experiment were 100 mM Hepes pH 7.0, 150 mM NaCl, 0.3% CHAPS, 0.5 mg/mL BSA, 0.1 μM FMN and 1% DMSO. The final concentration of DHODH enzyme in the reaction system was 5 nM, and the final concentration of substrate L-DHO was 15 μM, the final concentration of indicator Resazurin was 80 μM. The components of the reaction stop buffer were 100 mM Hepes pH 7.0 and 5 mM Orotate. The specific method was as follows: 2-fold final concentration of the DHODH enzyme solution was mixed with the compound, incubated at room temperature for 20 min, 2-fold final concentration of the substrate mixture solution of L-DHO and resazurin was added and reacted, incubated at room temperature away from light for 45 min. Then the reaction was stopped by adding 2-fold final concentration of the reaction stop buffer to the reaction system, and incubated at room temperature for 10 min, the fluorescence signal of the reaction system was detected with EnVision under the condition of Ex/Em=535/590 nm.
# [1] = test system: influenza virus A/Weiss/43 (H1N1); assay: Influenza virus cytopathic effect (CPE) experiment in MDCK cells; assay type: cell-based; details: unidentified influenza virus, H1N1, 120 h, 5 days incubation, CCK8
# [2] = Pharmacokinetic evaluation in mice (IV and PO); assay type: in vivo, female Balb/c mice; details: for AUC(0-inf) / AUC(0-t) / clearance / half-life / MRT last / Vd / Tmax / C0 / Cmax: female, Balb/c, mouse, plasma; for MRT last: read-out: MRT0-last; for Vd: read-out: VdSS
# Protocol: Experiment process: 0.04 mg/mL of a clarified solution of the test compound in 5% DMSO/10% Solutol solution/85% water was injected into female Balb/c mice (overnight fasting, 7-9 weeks of age) via tail vein, with dosage of 0.2 mg/kg. 0.1 mg/mL of the test compound in 5% DMSO/10% Solutol solution/0.2% Tween80/84.8% water was administered by gavage to female Balb/c mice (overnight fasting, 7-9 weeks of age), with dosage of 1 mg/kg. About 30 μL of blood was collected from the jugular vein at 0.0833, 0.25, 0.5, 1.0, 2.0, 4.0, 8.0, 10 and 24 h and from the tail vein at 0.25, 0.5, 1.0, 2.0, 4.0, 8.0 and 24 h after administration for both groups of animals, and were placed in anticoagulation tubes with EDTA-K2, and the blood was separated by centrifugation to obtain plasma. Plasma concentrations were detected by LC-MS/MS, and relevant pharmacokinetic parameters were calculated using WinNonlin™ Version 6.3 (Pharsight, Mountain View, CA) pharmacokinetic software with a non-compartmental model linear logarithmic trapezoid method.
# MDR1 (P-glycoprotein) = assay: Permeability evaluation on MDR1-MDCK II cell line; details: dog, MDCK-MDR1, pH 7.4
# [3] = test system: human peripheral blood mononuclear cells; assay: Proliferation inhibition of peripheral blood mononuclear cells (flow cytometry); assay type: cell-based; details: PBMC, PHA-M 5 μg/mL stimulation, 48 hours
# Protocol: Flow cytometry was used to detect cell proliferation of human peripheral blood mononuclear cells.
# • Cell complete medium: 445 mL of RPMI1640 cell culture+50 mL of fetal bovine serum+5 mL of double antibody • Buffer 1: 9.9 mL of phosphate buffer+0.1 mL of 10% bovine serum protein • Buffer 2: 10 mL of fetal bovine serum+490 mL of phosphate buffer 3.2 Cell Thawing • 3.2.1 20 mL of cell complete medium was added to a 50 mL of centrifuge tube and pre-heated in a 37° C. water bath for 5 minutes; • 3.2.2 the cell cryotubes were removed from the liquid nitrogen storage tank and placed on dry ice for 5-10 minutes to allow the liquid nitrogen to evaporate fully; • 3.2.3 the cell cryotubes were clamped with forceps and placed in the water bath, and shaken gently to thaw the frozen cells quickly; • 3.2.4 the thawed cells were transferred to the pre-heated cell complete medium with a pipette, centrifuged at 350 g for 5 min, then the supernatant was discarded, and the cells was resuspended by adding 10 mL of phosphate buffer; • 3.2.5 counting by cell counter, and cell viability and cell count were recorded. 3.3 Cell Labeling • 3.3.1 Cell proliferation labeling solution (CellTrace™ Violet, 1:1000 dilution) was prepared • 3.3.2 the above mixture was centrifuged at 350 g for 5 minutes, and the supernatant was discarded, then the cells (20×10^6/mL) were resuspended by adding Buffer 1, and the resuspended cells were gently blown by pipette, and an equal volume of cell proliferation labeling solution (prepared in 3.3.1) was added, and gently blown well by pipette; • 3.3.3 incubating in a 5% CO2, 37° C. cell incubator for 18 minutes; • 3.3.4 the 5-fold volume of cell complete medium was added and leaved at room temperature for 5 minutes to terminate the staining reaction; • 3.3.5 the above mixture was centrifuged at 350 g for 5 minutes, and the supernatant was discarded, then the cells were resuspended by adding 10 mL of cell complete medium, counted by cell counter, and cell viability and cell count were recorded; • 3.3.6 the above mixture was centrifuged at 350 g for 5 minutes, and the supernatant was discarded, then the corresponding volume of cell complete medium was added according to the cell counting results, and the density of the resuspended cells was 2×10^6/mL and was to be used. 3.4 Cell Proliferation Stimulation • 3.4.1 50 μL/well prepared cell suspension (1×10^5 cells/well), 50 μL of 4×PHA-M (the final concentration is 5 μg/mL), 50 μL of 4×test compound, 50 μL of cell complete medium were added to the wells of 96-well cell culture plate, and the corresponding control group was set up; (total volume of the reaction system is 200 μL) • 3.4.2 the cell culture plate was placed and incubated in a 5% CO2, 37° C. cell incubator for 48 hours. 3.5 Cell Proliferation Detection • 3.5.1 the above mixture was centrifuged at 350 g for 5 minutes and the supernatant was transferred to a new cell culture plate and stored at −80° C.; • 3.5.2 200 μL of Buffer 2 was add to the wells of the culture plate, and the above mixture was centrifuged at 350 g and the supernatant was discarded; • 3.5.3 cell dead or living staining solution (7-AAD, 1:100 dilution) was prepared with Buffer 2; • 3.5.4 100 μL/well of dead or living staining solution was added, and gently blown and mixed well by pipette, and stained at room temperature for 10 min; • 3.5.5 cell proliferation was detected by flow cytometry analyzer and analyzed by Flowjo software.
# DHODH enzyme, sequence (Q02127 whole entry): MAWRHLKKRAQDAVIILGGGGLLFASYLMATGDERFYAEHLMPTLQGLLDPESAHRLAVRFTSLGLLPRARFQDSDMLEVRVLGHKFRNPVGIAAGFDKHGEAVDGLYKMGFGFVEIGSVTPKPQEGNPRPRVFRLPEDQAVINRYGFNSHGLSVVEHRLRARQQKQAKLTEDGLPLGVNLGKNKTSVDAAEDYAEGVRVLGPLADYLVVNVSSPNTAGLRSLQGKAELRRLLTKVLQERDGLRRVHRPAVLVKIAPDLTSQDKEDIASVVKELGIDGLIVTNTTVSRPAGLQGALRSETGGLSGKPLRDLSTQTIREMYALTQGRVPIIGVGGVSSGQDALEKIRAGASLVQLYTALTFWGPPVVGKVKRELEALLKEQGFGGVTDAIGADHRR
smiles,measurement,setting,value
CCn1c(CO)nn(-c2cc(O[C@@H](C)C(F)(F)F)c(/C(F)=C/c3c(F)cccc3Cl)cc2F)c1=O [Compound 1],IC50,DHODH enzyme,0.71 nM
same,EC50,[1],< 1 nM
CCn1c(CO)nn(-c2cc(O[C@@H](C)C(F)(F)F)c(/C(F)=C/c3c(F)cncc3Cl)cc2F)c1=O [Compound 2],IC50,DHODH enzyme,3.9 nM
same,EC50,[1],20 nM
CCn1c(CO)nn(-c2cc(O[C@@H](C)C(F)(F)F)c(/C(F)=C/c3cccnc3OC)cc2F)c1=O [Compound 6],IC50,DHODH enzyme,12.4 nM
same,EC50,[1],67 nM
same,Tlast,[2]; IV 0.2 mg/kg,24.0 h
same,F,[2]; PO 1 mg/kg,85.4%
same,Tlast,[2]; PO 1 mg/kg,24.0 h
same,AUC(0-inf),[2]; IV 0.2 mg/kg,2.13 µM·h
same,AUC(0-t),[2]; IV 0.2 mg/kg,1.96 µM·h
same,clearance,[2]; IV 0.2 mg/kg,3.14 mL/min/kg
same,half-life,[2]; IV 0.2 mg/kg,6.83 h
same,MRT last,[2]; IV 0.2 mg/kg,5.93 h
same,Vd,[2]; IV 0.2 mg/kg,1.53 L/kg
same,AUC(0-inf),[2]; PO 1 mg/kg,9.08 µM·h
same,AUC(0-t),[2]; PO 1 mg/kg,7.79 µM·h
same,Tmax,[2]; PO 1 mg/kg,2 h
same,half-life,[2]; PO 1 mg/kg,9.19 h
same,MRT last,[2]; PO 1 mg/kg,7.76 h
same,C0,[2]; IV 0.2 mg/kg,640 nM
same,Cmax,[2]; PO 1 mg/kg,935 nM
same,"Papp A→B at 150 min, 2 μM",MDR1 (P-glycoprotein),3.72 ×10⁻⁶ cm/s
same,"Papp B→A at 150 min, 2 μM",MDR1 (P-glycoprotein),3.55 ×10⁻⁶ cm/s
same,"Papp at 150 min, 2 μM",MDR1 (P-glycoprotein),1 to 5.5 ×10⁻⁶ cm/s
same,"efflux ratio at 150 min, 2 μM",MDR1 (P-glycoprotein),0.95
CCn1c(C(=O)O)nn(-c2cc(O[C@@H](C)C(F)(F)F)c(/C(F)=C/c3c(F)cncc3Cl)cc2F)c1=O [Compound 21],IC50,DHODH enzyme,9 nM
CCn1c(CO)nn(-c2cc(OC(C)C(F)(F)F)c(C=Cc3ncccc3Cl)cc2F)c1=O (stereo not shown) [Compound 22],IC50,DHODH enzyme,121 nM
CCn1c(CO)nn(-c2cc(O[C@@H](C)C(F)(F)F)c(/C=C/c3cccnc3OC)cc2F)c1=O [Compound 23],IC50,DHODH enzyme,9 nM
CCn1c(C(=O)O)nn(-c2cc(O[C@@H](C)C(F)(F)F)c(/C(F)=C/c3ncccc3Cl)cc2F)c1=O [Compound 24],IC50,DHODH enzyme,8 nM
CCn1c(CO)nn(-c2nc(O[C@@H](C)C(F)(F)F)c(/C(F)=C/c3ncccc3Cl)cc2F)c1=O [Compound 25],IC50,DHODH enzyme,6 nM
same,IC50,[3],2 nM
CCn1c(CO)nn(-c2cc(O[C@@H](C)C(F)(F)F)c(/C(F)=C/c3cccnc3Cl)cc2F)c1=O [Compound 26],IC50,DHODH enzyme,1.5 nM
same,EC50,[1],2.4 nM
same,IC50,[3],4.6 nM
same,Tlast,[2]; IV 0.2 mg/kg,24 h
same,F,[2]; PO 1 mg/kg,80.2%
same,AUC(0-inf),[2]; IV 0.2 mg/kg,2.86 µM·h
same,AUC(0-t),[2]; IV 0.2 mg/kg,2.29 µM·h
same,clearance,[2]; IV 0.2 mg/kg,2.32 mL/min/kg
same,half-life,[2]; IV 0.2 mg/kg,9.68 h
same,MRT last,[2]; IV 0.2 mg/kg,8.04 h
same,Vd,[2]; IV 0.2 mg/kg,1.93 L/kg
same,AUC(0-inf),[2]; PO 1 mg/kg,13 µM·h
same,AUC(0-t),[2]; PO 1 mg/kg,9.2 µM·h
same,Tmax,[2]; PO 1 mg/kg,1 h
same,half-life,[2]; PO 1 mg/kg,14.8 h
same,MRT last,[2]; PO 1 mg/kg,8.9 h
same,C0,[2]; IV 0.2 mg/kg,451 nM
same,Cmax,[2]; PO 1 mg/kg,872 nM
same,"Papp A→B at 150 min, 2 μM",MDR1 (P-glycoprotein),8.59 ×10⁻⁶ cm/s
same,"Papp B→A at 150 min, 2 μM",MDR1 (P-glycoprotein),7.76 ×10⁻⁶ cm/s
same,"Papp at 150 min, 2 μM",MDR1 (P-glycoprotein),> 5.5 ×10⁻⁶ cm/s
same,"efflux ratio at 150 min, 2 μM",MDR1 (P-glycoprotein),0.9
CCn1c(CO)nn(-c2cc(O[C@@H](C)C(F)(F)F)c(/C(F)=C/c3cnccc3C)cc2F)c1=O [Compound 27],IC50,DHODH enzyme,1.5 nM
